Experimental data: paper PMC3832412 (PLoS ONE, 2013)
Entries after “also recorded” stand apart in the source; their conditions may differ.

Columns and labels:
[1] = tested on: NMDAR in primary rat hippocampal neurons; type: cell-based, rat (Sprague-Dawley)
[2] = tested on: NMDAR in primary rat hippocampal neurons; type: cell-based, rat (Sprague-Dawley); remark: listed apart in the source

Substance: GIKAQRDILYYγGγGγEHI-CONH2 [scrambled peptide]
- inhibition of NMDA-evoked current [1]: did not inhibit NMDA-evoked currents; also recorded: no such inhibitory activity
- effect on iCa^2+ levels [2]: did not result in any decrease in iCa^2+ levels; also recorded: no significant differences; also recorded: no such inhibitory activity
